The target of this assay is T1, Recombinant human IL-1β (Homo sapiens, UniProt P01584).
T1 construct: purchased BioLegend 579404
The assay can be described thus: IL-6 assay in MRC5 cells: inhibition of IL-1β induced IL-6 secretion (AlphaLISA). The class given is cell-based. Particulars: inhibition of IL-1β induced IL-6 secretion in MRC5 cells; IL-1β pre-incubated 1 hour with compound; read-out: MRC5 IC50. Summed up:
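IL-1β at 2×EC80 in seeding medium (EMEM, 0.025% BSA) preincubated 1 h at ambient temperature with compound, then 3000 MRC5 cells/well added and incubated overnight at 37 °C, 5% CO2. IL-6 in conditioned medium quantified by AlphaLISA; IC50 from 4-parameter logistic fit.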
A general note: Bead proximity is the source of the signal in Alpha formats.

*1 amine or outer side, *2 acyl side, *3 side chain or, on linkers, in order; H or OH if unused. Where a SMILES comes first, the peptide text is derived from it. [ ]: non-standard residue; d: D form. Trp(βS-Me,4-F) = C[C@@H](c1c[nH]c2cccc(F)c12)[C@H](N)C(=O)O; Bip(4'-COOH) = N[C@@H](Cc1ccc(-c2ccc(C(=O)O)cc2)cc1)C(=O)O; Phe(3-CH2NH2) = O=C([C@H](Cc1cccc(CN[*:3])c1)N[*:1])[*:2]; Phe(3-Ph) = N[C@@H](Cc1cccc(-c2ccccc2)c1)C(=O)O; Phe(4-COOH) = N[C@@H](Cc1ccc(C(=O)O)cc1)C(=O)O; h3Pal(5-CN) = N#Cc1cncc(CC[C@H](N)C(=O)O)c1; Pro(4R-NH2) = N[C@H]1CN[C@H](C(=O)O)C1; Ala(4-THP) = N[C@@H](CC1CCOCC1)C(=O)O; hTyr = N[C@@H](CCc1ccc(O)cc1)C(=O)O; Aad = N[C@@H](CCCC(=O)O)C(=O)O; dDab = NCC[C@@H](N)C(=O)O; dNMeA = CN[C@H](C)C(=O)O; Nva = CCC[C@H](N)C(=O)O

T1 sequence (P01584 117-269): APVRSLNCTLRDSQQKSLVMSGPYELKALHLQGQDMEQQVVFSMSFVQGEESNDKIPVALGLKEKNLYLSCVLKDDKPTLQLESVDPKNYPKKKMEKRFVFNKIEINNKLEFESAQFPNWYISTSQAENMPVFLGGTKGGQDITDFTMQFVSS

The IC50 is the concentration at which inhibition is half-maximal. With `CC(C)C[C@@H]1NC(=O)[C@H](CCCC(N)=O)NC(=O)[C@H](Cc2ccc(-c3ccc(C(=O)O)cc3)cc2)NC(=O)CNC(=O)[C@@H](C)N(C)C(=O)[C@H](CC(=O)O)NC(=O)[C@H]([C@@H](C)c2c[nH]c3cccc(F)c23)NC(=O)[C@@H]2C[C@@H](N)CN2C(=O)CNC(=O)[C@H](Cc2ccc(C(=O)O)cc2)NC(=O)[C@H](Cc2c[nH]c3ccccc23)NC(=O)[C@H](Cc2ccc(-c3ccc(C(=O)O)cc3)cc2)NC(=O)[C@H](CCc2ccc(O)cc2)NC(=O)[C@@H](C)NC1=O` [Example 63] (cyclo([Bip(4'-COOH)]W[Phe(4-COOH)]G[Pro(4R-NH2)][Trp(βS-Me,4-F)]D[dNMeA]G[Bip(4'-COOH)][Aad](NH2)L[dA][hTyr])), the IC50 was 0.0629 nM. The same measure for `C[C@@H]1C(=O)NCC(=O)N[C@@H](Cc2ccc(-c3ccc(C(=O)O)cc3)cc2)C(=O)N[C@@H](CCCCN)C(=O)N[C@@H](CC2CCOCC2)C(=O)N[C@H](C)C(=O)N[C@@H](CCc2cncc(C#N)c2)C(=O)N[C@@H](Cc2ccc(-c3ccc(C(=O)O)cc3)cc2)C(=O)N[C@@H](Cc2c[nH]c3ccccc23)C(=O)N[C@@H](Cc2ccc(C(=O)O)cc2)C(=O)NCC(=O)N2C[C@H](N)C[C@H]2C(=O)N[C@@H]([C@@H](C)c2c[nH]c3cccc(F)c23)C(=O)N[C@@H](CC(=O)O)C(=O)N1C` [Example 64] (cyclo([Bip(4'-COOH)]W[Phe(4-COOH)]G[Pro(4R-NH2)][Trp(βS-Me,4-F)]D[dNMeA]G[Bip(4'-COOH)]K[Ala(4-THP)][dA][h3Pal(5-CN)])): 0.0182 nM; for `C[C@@H]1C(=O)NCC(=O)N[C@@H](Cc2ccc(-c3ccc(C(=O)O)cc3)cc2)C(=O)N[C@@H](CCCCN)C(=O)N[C@@H](CC2CCOCC2)C(=O)N[C@H](C)C(=O)N[C@@H](CCc2ccc(O)cc2)C(=O)N[C@@H](Cc2ccc(-c3ccc(C(=O)O)cc3)cc2)C(=O)N[C@@H](Cc2c[nH]c3ccccc23)C(=O)N[C@@H](Cc2ccc(C(=O)O)cc2)C(=O)NCC(=O)N2C[C@H](N)C[C@H]2C(=O)N[C@@H]([C@@H](C)c2c[nH]c3cccc(F)c23)C(=O)N[C@@H](CC(=O)O)C(=O)N1C` [Example 65] (cyclo([Bip(4'-COOH)]W[Phe(4-COOH)]G[Pro(4R-NH2)][Trp(βS-Me,4-F)]D[dNMeA]G[Bip(4'-COOH)]K[Ala(4-THP)][dA][hTyr])): 0.0158 nM. Turning to `CC(C)C[C@@H]1NC(=O)[C@H](CCCCN)NC(=O)[C@H](Cc2ccc(-c3ccc(C(=O)O)cc3)cc2)NC(=O)CNC(=O)[C@@H](C)N(C)C(=O)[C@H](CC(=O)O)NC(=O)[C@H]([C@@H](C)c2c[nH]c3cccc(F)c23)NC(=O)[C@@H]2C[C@@H](N)CN2C(=O)CNC(=O)[C@H](Cc2ccc(C(=O)O)cc2)NC(=O)[C@H](Cc2c[nH]c3ccccc23)NC(=O)[C@H](Cc2ccc(-c3ccc(C(=O)O)cc3)cc2)NC(=O)[C@H](CCc2cncc(C#N)c2)NC(=O)[C@@H](C)NC1=O` [Example 66] (cyclo([Bip(4'-COOH)]W[Phe(4-COOH)]G[Pro(4R-NH2)][Trp(βS-Me,4-F)]D[dNMeA]G[Bip(4'-COOH)]KL[dA][h3Pal(5-CN)])), the IC50 was found to be 0.0299 nM.

With `CC(C)C[C@@H]1NC(=O)[C@H](CCCCN)NC(=O)[C@H](Cc2ccc(-c3ccc(C(=O)O)cc3)cc2)NC(=O)CNC(=O)[C@@H](C)N(C)C(=O)[C@H](CC(=O)O)NC(=O)[C@H]([C@@H](C)c2c[nH]c3cccc(F)c23)NC(=O)[C@@H]2C[C@@H](N)CN2C(=O)CNC(=O)[C@H](Cc2ccc(C(=O)O)cc2)NC(=O)[C@H](Cc2c[nH]c3ccccc23)NC(=O)[C@H](Cc2ccc(-c3ccc(C(=O)O)cc3)cc2)NC(=O)[C@H](CCc2ccc(O)cc2)NC(=O)[C@@H](C)NC1=O` [Example 67] (cyclo([Bip(4'-COOH)]W[Phe(4-COOH)]G[Pro(4R-NH2)][Trp(βS-Me,4-F)]D[dNMeA]G[Bip(4'-COOH)]KL[dA][hTyr])), the IC50 amounted to 0.046 nM.

For the compound `CC(C)C[C@@H]1NC(=O)[C@H](CCCCN)NC(=O)[C@H](Cc2ccc(-c3ccc(C(=O)O)cc3)cc2)NC(=O)CNC(=O)[C@@H](C)N(C)C(=O)[C@H](CC(=O)O)NC(=O)[C@H]([C@@H](C)c2c[nH]c3cccc(F)c23)NC(=O)[C@@H]2C[C@@H](N)CN2C(=O)CNC(=O)[C@H](Cc2ccc(C(=O)O)cc2)NC(=O)[C@H](Cc2c[nH]c3ccccc23)NC(=O)[C@H](Cc2ccc(-c3ccc(C(=O)O)cc3)cc2)NC(=O)[C@H](CCc2ccc(O)cc2)NC(=O)[C@@H](CCN)NC1=O` [Example 68] (cyclo([Bip(4'-COOH)]W[Phe(4-COOH)]G[Pro(4R-NH2)][Trp(βS-Me,4-F)]D[dNMeA]G[Bip(4'-COOH)]KL[dDab][hTyr])), the IC50 came out at 0.296 nM. The same measure for `CC(C)C[C@@H]1NC(=O)[C@H](CCCCN)NC(=O)[C@H](Cc2ccc(-c3ccc(C(=O)O)cc3)cc2)NC(=O)CNC(=O)[C@@H](C)N(C)C(=O)[C@H](CC(=O)O)NC(=O)[C@H]([C@@H](C)c2c[nH]c3cccc(F)c23)NC(=O)[C@@H]2C[C@@H](N)CN2C(=O)CNC(=O)[C@H](Cc2ccc(C(=O)O)cc2)NC(=O)[C@H](Cc2c[nH]c3ccccc23)NC(=O)[C@H](Cc2ccc(-c3ccc(C(=O)O)cc3)cc2)NC(=O)[C@H](CCc2ccc(O)cc2)NC(=O)[C@@H](CO)NC1=O` [Example 69] (cyclo([Bip(4'-COOH)]W[Phe(4-COOH)]G[Pro(4R-NH2)][Trp(βS-Me,4-F)]D[dNMeA]G[Bip(4'-COOH)]KL[dS][hTyr])): 0.334 nM; for `CC(C)C[C@@H]1NC(=O)[C@H](CCCCN)NC(=O)[C@H](Cc2ccc(-c3ccc(C(=O)O)cc3)cc2)NC(=O)CNC(=O)[C@@H](C)N(C)C(=O)[C@H](CC(=O)O)NC(=O)[C@H]([C@@H](C)c2c[nH]c3cccc(F)c23)NC(=O)[C@@H]2C[C@@H](N)CN2C(=O)CNC(=O)[C@H](Cc2ccc(C(=O)O)cc2)NC(=O)[C@H](Cc2c[nH]c3ccccc23)NC(=O)[C@H](Cc2ccc(-c3ccc(C(=O)O)cc3)cc2)NC(=O)[C@H](CCc2ccc(O)cc2)NC(=O)CNC1=O` [Example 70] (cyclo([Bip(4'-COOH)]W[Phe(4-COOH)]G[Pro(4R-NH2)][Trp(βS-Me,4-F)]D[dNMeA]G[Bip(4'-COOH)]KLG[hTyr])): 0.0973 nM. The value for `CCC[C@@H]1NC(=O)[C@H](CCCCN)NC(=O)[C@H](Cc2ccc(-c3ccc(C(=O)O)cc3)cc2)NC(=O)CNC(=O)[C@@H](C)N(C)C(=O)[C@H](CC(=O)O)NC(=O)[C@H]([C@@H](C)c2c[nH]c3cccc(F)c23)NC(=O)[C@@H]2C[C@@H](N)CN2C(=O)CNC(=O)[C@H](Cc2ccc(C(=O)O)cc2)NC(=O)[C@H](Cc2c[nH]c3ccccc23)NC(=O)[C@H](Cc2ccc(-c3ccc(C(=O)O)cc3)cc2)NC(=O)[C@H](CCc2ccc(O)cc2)NC(=O)[C@@H](C)NC1=O` [Example 71] (cyclo([Bip(4'-COOH)]W[Phe(4-COOH)]G[Pro(4R-NH2)][Trp(βS-Me,4-F)]D[dNMeA]G[Bip(4'-COOH)]K[Nva][dA][hTyr])) was 0.0926 nM.

As to `C[C@@H]1C(=O)NCC(=O)N[C@@H](Cc2ccc(-c3ccc(C(=O)O)cc3)cc2)C(=O)N[C@@H](CCCCN)C(=O)N[C@@H](CO)C(=O)N[C@H](C)C(=O)N[C@@H](CCc2ccc(O)cc2)C(=O)N[C@@H](Cc2ccc(-c3ccc(C(=O)O)cc3)cc2)C(=O)N[C@@H](Cc2c[nH]c3ccccc23)C(=O)N[C@@H](Cc2ccc(C(=O)O)cc2)C(=O)NCC(=O)N2C[C@H](N)C[C@H]2C(=O)N[C@@H]([C@@H](C)c2c[nH]c3cccc(F)c23)C(=O)N[C@@H](CC(=O)O)C(=O)N1C` [Example 72] (cyclo([Bip(4'-COOH)]W[Phe(4-COOH)]G[Pro(4R-NH2)][Trp(βS-Me,4-F)]D[dNMeA]G[Bip(4'-COOH)]KS[dA][hTyr])), the IC50 amounted to 0.107 nM.

Consider `CC(C)C[C@@H]1NC(=O)[C@H](Cc2cccc(CN)c2)NC(=O)[C@H](Cc2ccc(-c3ccc(C(=O)O)cc3)cc2)NC(=O)CNC(=O)[C@@H](C)N(C)C(=O)[C@H](CC(=O)O)NC(=O)[C@H]([C@@H](C)c2c[nH]c3cccc(F)c23)NC(=O)[C@@H]2C[C@@H](N)CN2C(=O)CNC(=O)[C@H](Cc2ccc(C(=O)O)cc2)NC(=O)[C@H](Cc2c[nH]c3ccccc23)NC(=O)[C@H](Cc2ccc(-c3ccc(C(=O)O)cc3)cc2)NC(=O)[C@H](CCc2ccc(O)cc2)NC(=O)[C@@H](C)NC1=O` [Example 73] (cyclo([Bip(4'-COOH)]W[Phe(4-COOH)]G[Pro(4R-NH2)][Trp(βS-Me,4-F)]D[dNMeA]G[Bip(4'-COOH)][Phe(3-CH2NH2)]L[dA][hTyr])), for which the IC50 amounted to 0.0509 nM. Regarding `C[C@@H]1C(=O)NCC(=O)N[C@@H](Cc2ccc(-c3ccc(C(=O)O)cc3)cc2)C(=O)N[C@@H](Cc2cccc(CN)c2)C(=O)N[C@@H](CO)C(=O)N[C@H](C)C(=O)N[C@@H](CCc2ccc(O)cc2)C(=O)N[C@@H](Cc2ccc(-c3ccc(C(=O)O)cc3)cc2)C(=O)N[C@@H](Cc2c[nH]c3ccccc23)C(=O)N[C@@H](Cc2ccc(C(=O)O)cc2)C(=O)NCC(=O)N2C[C@H](N)C[C@H]2C(=O)N[C@@H]([C@@H](C)c2c[nH]c3cccc(F)c23)C(=O)N[C@@H](CC(=O)O)C(=O)N1C` [Example 74] (cyclo([Bip(4'-COOH)]W[Phe(4-COOH)]G[Pro(4R-NH2)][Trp(βS-Me,4-F)]D[dNMeA]G[Bip(4'-COOH)][Phe(3-CH2NH2)]S[dA][hTyr])), the IC50 came to 0.296 nM. Take `CC(C)C[C@@H]1NC(=O)[C@H](Cc2cccc(-c3ccccc3)c2)NC(=O)[C@H](Cc2ccc(-c3ccc(C(=O)O)cc3)cc2)NC(=O)CNC(=O)[C@@H](C)N(C)C(=O)[C@H](CC(=O)O)NC(=O)[C@H]([C@@H](C)c2c[nH]c3cccc(F)c23)NC(=O)[C@@H]2C[C@@H](N)CN2C(=O)CNC(=O)[C@H](Cc2ccc(C(=O)O)cc2)NC(=O)[C@H](Cc2c[nH]c3ccccc23)NC(=O)[C@H](Cc2ccc(-c3ccc(C(=O)O)cc3)cc2)NC(=O)[C@H](CCc2ccc(O)cc2)NC(=O)[C@@H](C)NC1=O` [Example 75] (cyclo([Bip(4'-COOH)]W[Phe(4-COOH)]G[Pro(4R-NH2)][Trp(βS-Me,4-F)]D[dNMeA]G[Bip(4'-COOH)][Phe(3-Ph)]L[dA][hTyr])): the IC50 was 0.165 nM.

(Values after patent publication US20230406885A1, “CYCLIC PEPTIDES FOR TRAPPING INTERLEUKIN-1 BETA” (MERCK SHARP & DOHME LLC, priority 2022, published 2023).)
